The target in data set [1] is T1, NMDA receptor (3H-Ro 25-6981 binding site), rat brain membranes (Rattus norvegicus, UniProt P35439+Q00960).
T1 construct: Membranes were prepared by homogenization of the whole brain minus cerebellum and medulla oblongata; from tissue; host or cells: rat whole brain minus cerebellum and medulla oblongata, membrane preparation
As to the kind of experiment: 3H-Ro 25-6981 binding. How it is done: 3H-Ro 25-6981 binding (Ro 25-6981 is [R—(R*,S*)]-a-(4-hydroxy-phenyl)-b-methyl-4-(phenyl-methyl)-1-piperidine propanol)
Male Füllinsdorf albino rats weighing between 150-200 g were used. Membranes were prepared by homogenization of the whole brain minus cerebellum and medulla oblongata with a Polytron (10,000 rpm, 30 seconds), in 25 volumes of a cold Tris-HCl 50 mM, EDTA 10 mM, pH 7.1 buffer. The homogenate was centrifuged at 48,000 g for 10 minutes at 4° C. The pellet was resuspended using the Polytron in the same volume of buffer and the homogenate was incubated at 37° C. for 10 minutes. After centrifugation the pellet was homogenized in the same buffer and frozen at −80° C. for at least 16 hours but not more than 10 days. For the binding assay the homogenate was thawed at 37° C., centrifuged and the pellet was washed three times as above in a Tris-HCl 5 mM, pH 7.4 cold buffer. The final pellet was resuspended in the same buffer and used at a final concentration of […].
3H-Ro 25-6981 binding experiments were performed using a Tris-HCl 50 mM, pH 7.4 buffer. For displacement experiments 5 nM of 3H-Ro 25-6981 were used and non-specific binding was measured using 10 mM of tetrahydroisoquinoline and usually it accounts for 10% of the total. The incubation time was 2 hours at 4° C. and the assay was stopped by filtration on Whatman GF/B glass fiber filters (Unifilter-96, Packard, Zürich, Switzerland). The filters were washed 5 times with cold buffer. The radioactivity on the filter was counted on a Packard Top-count microplate scintillation counter after addition of […] of microscint 40 (Canberra Packard S.A., Zürich, Switzerland).
The effects of compounds were measured using a minimum of 8 concentrations and repeated at least once. The pooled normalized values were analyzed using a non-linear regression calculation program which provide IC50 with their relative upper and lower 95% confidence limits (RS1, BBN, USA).

Where [2] appears, read: displacement of 5 nM 3H-Ro 25-6981, rat whole brain minus cerebellum and medulla oblongata membranes, 2 hours at 4° C., read-out: IC50.

Like-named read-outs stand apart in the source and are kept apart here.

T1 sequence (Q00960 27-1482, other chains not shown): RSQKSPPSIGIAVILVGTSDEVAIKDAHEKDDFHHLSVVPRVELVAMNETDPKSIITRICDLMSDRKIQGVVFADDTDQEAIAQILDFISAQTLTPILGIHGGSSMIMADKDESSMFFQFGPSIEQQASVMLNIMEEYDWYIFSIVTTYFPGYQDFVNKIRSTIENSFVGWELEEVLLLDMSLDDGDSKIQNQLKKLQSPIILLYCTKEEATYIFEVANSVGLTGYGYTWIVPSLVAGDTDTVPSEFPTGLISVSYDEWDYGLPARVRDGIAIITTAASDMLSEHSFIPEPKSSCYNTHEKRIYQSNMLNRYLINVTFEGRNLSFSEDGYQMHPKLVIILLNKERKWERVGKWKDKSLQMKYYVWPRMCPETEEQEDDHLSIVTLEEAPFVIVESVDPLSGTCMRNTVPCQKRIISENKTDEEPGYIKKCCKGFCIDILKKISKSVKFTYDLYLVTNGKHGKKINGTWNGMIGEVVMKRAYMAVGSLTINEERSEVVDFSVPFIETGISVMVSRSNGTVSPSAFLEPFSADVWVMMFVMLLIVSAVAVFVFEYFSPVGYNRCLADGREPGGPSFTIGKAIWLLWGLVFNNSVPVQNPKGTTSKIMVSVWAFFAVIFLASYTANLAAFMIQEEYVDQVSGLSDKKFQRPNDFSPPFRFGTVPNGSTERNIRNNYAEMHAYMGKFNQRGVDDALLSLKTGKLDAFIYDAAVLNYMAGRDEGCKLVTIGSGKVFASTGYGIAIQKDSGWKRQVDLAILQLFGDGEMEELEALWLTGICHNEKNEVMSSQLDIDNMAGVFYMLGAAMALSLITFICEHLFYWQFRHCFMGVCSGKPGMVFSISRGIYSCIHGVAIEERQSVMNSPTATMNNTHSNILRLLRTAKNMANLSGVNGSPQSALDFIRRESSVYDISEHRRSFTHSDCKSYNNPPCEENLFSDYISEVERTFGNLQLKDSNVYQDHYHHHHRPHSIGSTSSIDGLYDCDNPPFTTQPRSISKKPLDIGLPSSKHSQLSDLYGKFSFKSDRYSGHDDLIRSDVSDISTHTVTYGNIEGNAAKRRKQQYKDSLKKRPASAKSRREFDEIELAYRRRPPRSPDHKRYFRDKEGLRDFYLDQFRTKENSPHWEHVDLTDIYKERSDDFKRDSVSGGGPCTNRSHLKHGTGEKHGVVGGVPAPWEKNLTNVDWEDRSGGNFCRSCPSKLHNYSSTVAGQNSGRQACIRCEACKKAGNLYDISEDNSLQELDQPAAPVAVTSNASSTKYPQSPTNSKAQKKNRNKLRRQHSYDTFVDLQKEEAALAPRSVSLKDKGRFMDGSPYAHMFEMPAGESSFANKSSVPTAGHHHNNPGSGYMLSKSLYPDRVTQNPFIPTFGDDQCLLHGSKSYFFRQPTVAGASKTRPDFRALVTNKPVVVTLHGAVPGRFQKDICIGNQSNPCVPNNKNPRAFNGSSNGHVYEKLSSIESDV

As usually defined, the IC50 is the point on the concentration scale where inhibition reaches its midpoint. In turn, `O=S(=O)(c1ccc(O)cc1)[C@H]1CCN(CC(F)CCc2ccccc2)C1` (mixture of isomers) [Example 35, (2R,3S) and (2S,3S)-4-[1-(2-Fluoro-4-phenyl-butyl)-pyrrolidine-3-sulfonyl]-phenol] returned an IC50 in data set [1] of 29 nM.

The melting point is the temperature, or range, at which the solid turns liquid. `Cl.O=S(=O)(c1ccc(O)cc1)C1CCN(CCCCc2ccccc2)C1` (racemic) displayed a melting point of 121 to 124 °C. As for `[O-][S@@+](c1ccc(O)cc1)[C@H]1CCN(C[C@@H](F)CCc2ccccc2)C1` [Example 62, (2S,3S,S-oxide R)-4-[1-(2-Fluoro-4-phenyl-butyl)-pyrrolidine-3-sulfinyl]-phenol], the half-inhibitory concentration (IC50) in data set [1] (setting [2]) worked out at 60 nM. As for `O=S(=O)(c1ccc(O)cc1)[C@H]1CCN(CC(O)C2Cc3ccccc3C2)C1` (mixture of isomers) [Example 43, (2R,3S) and (2S,3S)-4-[1-(2-Hydroxy-2-indan-2-yl-ethyl)-pyrrolidine-3-sulfonyl]-phenol], in data set [1] (setting [2]), the IC50 came to 31 nM. For `O=S(=O)(c1ccc(O)cc1)C1CCN([C@H]2CC[C@@H](c3ccccc3)CC2)C1` (relative stereo) [Example 6, (3RS,cis)-4-[1-(4-Phenyl-cyclohexyl)-pyrrolidine-3-sulfonyl]-phenol], the concentration for half-maximal inhibition (IC50) in data set [1] (setting [2]) was 59 nM. Regarding `Oc1ccc(S[C@@H]2CCN(CCCCc3ccccc3)C2)cc1` [Example 3, (R)-4-[1-(4-Phenyl-butyl)-pyrrolidin-3-yl-sulfanyl]-phenol], the IC50 in data set [1] (setting [2]) amounted to 20 nM. Turning to `Oc1ccc(S[C@H]2CCN(CCCCc3ccccc3)C2)cc1` [Example 2, (S)-4-[1-(4-Phenyl-butyl)-pyrrolidin-3-yl-sulfanyl]-phenol], the IC50 in data set [1] (setting [2]) is 9 nM.

Take `O=S(=O)(c1ccc(O)cc1)C1CCN(C2CC(Cc3ccccc3)C2)C1` (stereo not drawn) [Example 4, (3RS,cis) and (3RS,trans)-4-[1-(3-Benzyl-cyclobutyl)-pyrrolidine-3-sulfonyl]-phenol]: the half-inhibitory concentration (IC50) in data set [1] (setting [2]) was found to be 40 nM. On to `Oc1ccc(S[C@H]2CCN(CC(F)CCc3ccccc3)C2)cc1` (mixture of isomers) [Example 68, (2RS,3S)-4-[1-(2-Fluoro-4-phenyl-butyl)-pyrrolidin-3-ylsulfanyl]-phenol], for which the IC50 in data set [1] worked out at 77 nM. `O=S(=O)(c1ccc(O)cc1)[C@@H]1CN(CCCCc2ccccc2)C[C@H]1O` (racemic) [Example 16, (3RS,4RS)-4-(4-Hydroxy-benzenesulfonyl)-1-(4-phenyl-butyl)-pyrrolidin-3-ol]: the IC50 in data set [1] (setting [2]) came to 80 nM.
